In patent US20210045385A1, “PYRIDAZINONE-SUBSTITUTED KETOXIMES AS HERBICIDES” (FMC Corporation, priority 2018, published 2021):

Assays:
Assay type in all cases: in vivo
[1] = system: Italian ryegrass (Lolium multiflorum); experiment: Test A preemergence, visual plant response rating; details: for Ryegrass, Italian plant response rating: 125 g ai/ha, preemergence, 0 to 100 scale, 0 no effect, 100 complete control; for Ryegrass, Italian plant response rating (0 to 100 scale): 500 g ai/ha Preemergence, approx. 10 days
How it was run: (§1)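 Ratings 0–100 (100 = complete control), visual, vs untreated controls at ~10 days. Application pre- or postemergence; solvent mixture with surfactant; loam/sand medium.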

[2] = system: barnyardgrass (Echinochloa crus-galli); experiment: Test A preemergence, visual plant response rating; details: for Barnyardgrass plant response rating: 125 g ai/ha, preemergence, 0 to 100 scale, 0 no effect, 100 complete control; for Barnyardgrass plant response rating (0 to 100 scale): 500 g ai/ha Preemergence, approx. 10 days
How it was run: as §1

[3] = system: foxtail, giant (giant foxtail, Setaria faberii); experiment: Test A preemergence, visual plant response rating; details: for Foxtail, Giant plant response rating: 125 g ai/ha, preemergence, 0 to 100 scale, 0 no effect, 100 complete control; for Foxtail, Giant plant response rating (0 to 100 scale): 500 g ai/ha Preemergence, approx. 10 days
How it was run: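 Preemergence: seeds in loam/sand blend given directed soil spray of compound in non-phytotoxic solvent with surfactant. Postemergence: plants 2–10 cm, one- to two-leaf stage, sprayed with same formulation. Visual injury rated vs untreated controls after ~10 days in greenhouse, 0 (no effect) to 100 (complete control).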

kochia (Kochia scoparia) [4] = experiment: Test A preemergence, visual plant response rating; details: for Kochia plant response rating: 125 g ai/ha, preemergence, 0 to 100 scale, 0 no effect, 100 complete control; for Kochia plant response rating (0 to 100 scale): 500 g ai/ha Preemergence, approx. 10 days
How it was run: as §1

[5] = system: pigweed (Amaranthus retroflexus); experiment: Test A preemergence, visual plant response rating; details: for Pigweed plant response rating: 125 g ai/ha, preemergence, 0 to 100 scale, 0 no effect, 100 complete control; for Pigweed plant response rating (0 to 100 scale): 500 g ai/ha Preemergence, approx. 10 days
How it was run: as §1

[6] = system: ragweed (common ragweed, Ambrosia elatior); experiment: Test A preemergence, visual plant response rating; details: for Ragweed plant response rating: 125 g ai/ha, preemergence, 0 to 100 scale, 0 no effect, 100 complete control; for Ragweed plant response rating (0 to 100 scale): 500 g ai/ha Preemergence, approx. 10 days
How it was run: as §1

[7] = system: Italian ryegrass (Lolium multiflorum); experiment: Test A postemergence, visual plant response rating; details: for Ryegrass, Italian plant response rating (0 to 100 scale): 500 g ai/ha, postemergence, 0 is no effect, 100 is complete control; for Ryegrass, Italian plant response rating: Postemergence, 125 g ai/ha, 0 to 100 scale (0 no effect, 100 complete control)
How it was run: as §1

[8] = system: barnyardgrass (Echinochloa crus-galli); experiment: Test A postemergence, visual plant response rating; details: for Barnyardgrass plant response rating (0 to 100 scale): 500 g ai/ha, postemergence, 0 is no effect, 100 is complete control; for Barnyardgrass plant response rating: Postemergence, 125 g ai/ha, 0 to 100 scale (0 no effect, 100 complete control)
How it was run: as §1

[9] = system: blackgrass (Alopecurus myosuroides); experiment: Test A postemergence, visual plant response rating; details: for Blackgrass plant response rating (0 to 100 scale): 500 g ai/ha, postemergence, 0 is no effect, 100 is complete control; for Blackgrass plant response rating: Postemergence, 125 g ai/ha, 0 to 100 scale (0 no effect, 100 complete control)
How it was run: as §1

corn (Zea mays) = experiment: Test A postemergence, visual plant response rating; details: for Corn plant response rating (0 to 100 scale): 500 g ai/ha, postemergence, 0 is no effect, 100 is complete control; for Corn plant response rating: Postemergence, 125 g ai/ha, 0 to 100 scale (0 no effect, 100 complete control)
How it was run: as §1

[10] = system: foxtail, giant (giant foxtail, Setaria faberii); experiment: Test A postemergence, visual plant response rating; details: for Foxtail, Giant plant response rating (0 to 100 scale): 500 g ai/ha, postemergence, 0 is no effect, 100 is complete control; for Foxtail, Giant plant response rating: Postemergence, 125 g ai/ha, 0 to 100 scale (0 no effect, 100 complete control)
How it was run: as §1

[11] = system: galium (catchweed bedstraw, Galium aparine); experiment: Test A postemergence, visual plant response rating; details: for Galium plant response rating (0 to 100 scale): 500 g ai/ha, postemergence, 0 is no effect, 100 is complete control; for Galium plant response rating: Postemergence, 125 g ai/ha, 0 to 100 scale (0 no effect, 100 complete control)
How it was run: as §1

kochia (Kochia scoparia) [12] = experiment: Test A postemergence, visual plant response rating; details: for Kochia plant response rating (0 to 100 scale): 500 g ai/ha, postemergence, 0 is no effect, 100 is complete control; for Kochia plant response rating: Postemergence, 125 g ai/ha, 0 to 100 scale (0 no effect, 100 complete control)
How it was run: as §1

[13] = system: pigweed (Amaranthus retroflexus); experiment: Test A postemergence, visual plant response rating; details: for Pigweed plant response rating (0 to 100 scale): 500 g ai/ha, postemergence, 0 is no effect, 100 is complete control; for Pigweed plant response rating: Postemergence, 125 g ai/ha, 0 to 100 scale (0 no effect, 100 complete control)
How it was run: as §1

[14] = system: ragweed (common ragweed, Ambrosia elatior); experiment: Test A postemergence, visual plant response rating; details: for Ragweed plant response rating (0 to 100 scale): 500 g ai/ha, postemergence, 0 is no effect, 100 is complete control; for Ragweed plant response rating: Postemergence, 125 g ai/ha, 0 to 100 scale (0 no effect, 100 complete control)
How it was run: as §1

[15] = system: wheat (Triticum aestivum); experiment: Test A postemergence, visual plant response rating; details: for Wheat plant response rating (0 to 100 scale): 500 g ai/ha, postemergence, 0 is no effect, 100 is complete control
How it was run: as §1

[16] = system: barnyardgrass (Echinochloa crus-galli); experiment: Test B flooded paddy test, visual plant response rating; details: 250 g ai/ha, Flood, applied to paddy water, 2-leaf stage, evaluated after 13 to 15 days
How it was run: (§2)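 Rice, umbrella sedge, ducksalad and barnyardgrass grown to 2-leaf stage; pots flooded 3 cm above soil and compound applied directly to paddy water, depth maintained.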

[17] = system: ducksalad (Heteranhera limosa); experiment: as above; details: 250 g ai/ha, Flood, applied to paddy water, 2-leaf stage, evaluated after 13 to 15 days
How it was run: as §2

rice (Oryza sativa) = experiment: as above; details: 250 g ai/ha, Flood, applied to paddy water, 2-leaf stage, evaluated after 13 to 15 days
How it was run: as §2

[18] = system: sedge, umbrella (small-flower umbrella sedge, Cyperus difformis); experiment: as above; details: 250 g ai/ha, Flood, applied to paddy water, 2-leaf stage, evaluated after 13 to 15 days
How it was run: as §2

Row | SMILES | Ryegrass, Italian plant response rating [1] | Ryegrass, Italian plant response rating (0 to 100 scale) [1] | Barnyardgrass plant response rating [2] | Barnyardgrass plant response rating (0 to 100 scale) [2] | Foxtail, Giant plant response rating [3] | Foxtail, Giant plant response rating (0 to 100 scale) [3] | Kochia plant response rating (kochia (Kochia scoparia) [4]) | Kochia plant response rating (0 to 100 scale) (kochia (Kochia scoparia) [4]) | Pigweed plant response rating [5] | Pigweed plant response rating (0 to 100 scale) [5] | Ragweed plant response rating [6] | Ragweed plant response rating (0 to 100 scale) [6] | Ryegrass, Italian plant response rating (0 to 100 scale) [7] | Ryegrass, Italian plant response rating [7] | Barnyardgrass plant response rating (0 to 100 scale) [8] | Barnyardgrass plant response rating [8] | Blackgrass plant response rating (0 to 100 scale) [9] | Blackgrass plant response rating [9] | Corn plant response rating (0 to 100 scale) (corn (Zea mays)) | Corn plant response rating (corn (Zea mays)) | also measured
1 | CON=C(c1c(O)c(C)nn(C)c1=O)c1cccc2ccoc12 [Compound 60] | 0 | 40 | 0 | 0 | 10 | 10 | 0 | 0 | 0 | 30 | 0 | 30 | 20 | 10 | 0 | 0 | 10 | 0 | 0 | 0 | Foxtail, Giant plant response rating (0 to 100 scale) [10]: 30; Foxtail, Giant plant response rating [10]: 0; Galium plant response rating (0 to 100 scale) [11]: 70; Galium plant response rating [11]: 60; Kochia plant response rating (0 to 100 scale) (kochia (Kochia scoparia) [12]): 50; Kochia plant response rating (kochia (Kochia scoparia) [12]): 30; Pigweed plant response rating (0 to 100 scale) [13]: 90; Pigweed plant response rating [13]: 50; Ragweed plant response rating (0 to 100 scale) [14]: 40; Ragweed plant response rating [14]: 20; Wheat plant response rating (0 to 100 scale) [15]: 40; Plant response rating, Barnyardgrass (0 to 100 scale, 0 is no effect, 100 is complete control) [16]: 0; Plant response rating, Ducksalad (0 to 100 scale, 0 is no effect, 100 is complete control) [17]: 0; Plant response rating, Rice (0 to 100 scale, 0 is no effect, 100 is complete control) (rice (Oryza sativa)): 0; Plant response rating, Sedge, Umbrella (0 to 100 scale, 0 is no effect, 100 is complete control) [18]: 0
2 | CON=C(c1c(O)c(C)nn(C)c1=O)c1cccc2ccoc12 [Compound 61] | 30 | 80 | 0 | 0 | 0 | 10 | 0 | 0 | 0 | 0 | 0 | 70 | 70 | 10 | 20 | 0 | 20 | 10 | 0 | 0 | Foxtail, Giant plant response rating (0 to 100 scale) [10]: 20; Foxtail, Giant plant response rating [10]: 0; Galium plant response rating (0 to 100 scale) [11]: 80; Galium plant response rating [11]: 60; Kochia plant response rating (0 to 100 scale) (kochia (Kochia scoparia) [12]): 50; Kochia plant response rating (kochia (Kochia scoparia) [12]): 30; Pigweed plant response rating (0 to 100 scale) [13]: 80; Pigweed plant response rating [13]: 50; Ragweed plant response rating (0 to 100 scale) [14]: 30; Ragweed plant response rating [14]: 10; Wheat plant response rating (0 to 100 scale) [15]: 40; Wheat plant response rating ([15]; Postemergence, 125 g ai/ha, 0 to 100 scale (0 no effect, 100 complete control)): 30; Plant response rating, Barnyardgrass (0 to 100 scale, 0 is no effect, 100 is complete control) [16]: 0; Plant response rating, Ducksalad (0 to 100 scale, 0 is no effect, 100 is complete control) [17]: 0; Plant response rating, Rice (0 to 100 scale, 0 is no effect, 100 is complete control) (rice (Oryza sativa)): 0; Plant response rating, Sedge, Umbrella (0 to 100 scale, 0 is no effect, 100 is complete control) [18]: 0
